Test results as given in the supplement of paper PMC13380429.

Legend:
Conditions in all cases: 72 h
Vero E6 [1] = experiment: relative viability EC50 (midpoint between 100% and the lowest measured viability); higher = less toxic
U2OS [2] = experiment: as above
HepG2 [3] = experiment: as above
Calu-3 [4] = experiment: as above
Caco-2 [5] = experiment: as above
Vero E6 [6] = experiment: drug sensitivity score (DSS) for viability; higher = more toxic; extreme values may be limits of the assay
U2OS [7] = experiment: as above
HepG2 [8] = experiment: as above
Calu-3 [9] = experiment: as above
Caco-2 [10] = experiment: as above
Vero E6 [11] = experiment: cell viability relative to DMSO; higher = less toxic
U2OS [12] = experiment: as above
HepG2 [13] = experiment: as above
Calu-3 [14] = experiment: as above
Caco-2 [15] = experiment: as above

SMILES | relative viability EC50 (Vero E6 [1]) | relative viability EC50 (U2OS [2]) | relative viability EC50 (HepG2 [3]) | relative viability EC50 (Calu-3 [4]) | relative viability EC50 (Caco-2 [5]) | drug sensitivity score (Vero E6 [6]) | drug sensitivity score (U2OS [7]) | drug sensitivity score (HepG2 [8]) | drug sensitivity score (Calu-3 [9]) | drug sensitivity score (Caco-2 [10]) | cell viability (Vero E6 [11]; 1 nM) | cell viability (Vero E6 [11]; 10 nM) | cell viability (Vero E6 [11]; 100 nM) | cell viability (Vero E6 [11]; 1000 nM) | cell viability (Vero E6 [11]; 10000 nM) | cell viability (U2OS [12]; 1 nM) | cell viability (U2OS [12]; 10 nM) | cell viability (U2OS [12]; 100 nM) | cell viability (U2OS [12]; 1000 nM) | cell viability (U2OS [12]; 10000 nM) | cell viability (HepG2 [13]; 1 nM) | cell viability (HepG2 [13]; 10 nM) | cell viability (HepG2 [13]; 100 nM) | cell viability (HepG2 [13]; 1000 nM) | cell viability (HepG2 [13]; 10000 nM) | cell viability (Calu-3 [14]; 1 nM) | cell viability (Calu-3 [14]; 10 nM) | cell viability (Calu-3 [14]; 100 nM) | cell viability (Calu-3 [14]; 1000 nM) | cell viability (Calu-3 [14]; 10000 nM) | cell viability (Caco-2 [15]; 1 nM) | cell viability (Caco-2 [15]; 10 nM) | cell viability (Caco-2 [15]; 100 nM) | cell viability (Caco-2 [15]; 1000 nM) | cell viability (Caco-2 [15]; 10000 nM)
CC(C)N1Cc2cc(S(C)(=O)=O)ccc2N(CCN2CC=C(c3c[nH]c4cc(F)ccc34)CC2)S1(=O)=O | > 10 µM | > 10 µM | > 10 µM | > 10 µM | > 10 µM | 0 | 0 | 0 | 0 | 0 | 89.6% | 97.7% | 94.1% | 94.7% | 97.6% | 99.9% | 99.1% | 103% | 95.8% | 95.2% | 99.9% | 107% | 95.8% | 105% | 100% | 98.6% | 99.3% | 92.7% | 107% | 110% | 98.3% | 98.8% | 102% | 91.2% | 104%
CC(C)n1cnc2c(C(=O)N[C@H]3CN4CCC3CC4)cc(Cl)cc21 | > 10 µM | > 10 µM | > 10 µM | > 10 µM | > 10 µM | 0 | 0 | 0 | 0 | 0 | 100% | 95.8% | 97.5% | 94.9% | 100% | 104% | 103% | 97.1% | 105% | 97.8% | 116% | 102% | 104% | 98.2% | 97.6% | 93.9% | 101% | 84.9% | 92.9% | 90.6% | 106% | 106% | 94.4% | 101% | 94.9%
CCOc1ccc(-c2ccc(Cn3c(CC(C)(C)C(=O)O)c(SC(C)(C)C)c4cc(OCc5ccc(C)cn5)ccc43)cc2)cn1 | > 10 µM | > 10 µM | > 10 µM | > 10 µM | > 10 µM | 1.3 | 1 | 1 | 0 | 0 | 98.6% | 95.4% | 90.1% | 94% | 76.1% | 100% | 106% | 96.6% | 97.8% | 78.2% | 104% | 104% | 102% | 86.2% | 95.7% | 107% | 105% | 111% | 112% | 99.9% | 98.4% | 98.8% | 105% | 103% | 88.9%
CN1CCc2cc(Cl)c(O)cc2[C@@H](c2ccccc2)C1 | > 10 µM | > 10 µM | > 10 µM | > 10 µM | > 10 µM | 0 | 0 | 0 | 0 | 0 | 95.6% | 95% | 93.5% | 85.1% | 102% | 97.5% | 100% | 97.8% | 102% | 101% | 98.2% | 96.3% | 97.2% | 97.4% | 89.9% | 93.3% | 103% | 145% | 103% | 97.9% | 96.3% | 93.2% | 96.3% | 100% | 99.1%
COc1ccc(-c2cc3c(C)nc(N)nc3n([C@H]3CC[C@H](OCCO)CC3)c2=O)cn1 | 0.21 µM | 0.504 µM | 0.202 µM | 0.0917 µM | 0.114 µM | 16 | 14.2 | 15.9 | 20.8 | 17.2 | 94% | 98.4% | 74.4% | 30% | 17% | 100% | 95% | 89.1% | 32.6% | 3.8% | 104% | 103% | 77.5% | 28.7% | 20.1% | 85.3% | 87.3% | 56% | 19.6% | 10% | 92.5% | 89.9% | 67.1% | 27.7% | 23.4%
COc1cccc(OC)c1-c1ccc(C[C@H](NC(=O)c2c(Cl)cccc2Cl)C(=O)O)cc1 | > 10 µM | > 10 µM | > 10 µM | > 10 µM | > 10 µM | 0 | 0 | 0 | 0 | 0 | 92.2% | 96.2% | 91.8% | 99.9% | 107% | 103% | 96.5% | 98.5% | 97.8% | 93.4% | 91.7% | 104% | 91% | 99.5% | 99.3% | 104% | 90.9% | 105% | 96.9% | 108% | 85.9% | 90.1% | 97.6% | 94.4% | 108%
COc1ccccc1NC(=O)OCC1CCN(C(=O)OC(C)(C)C)CC1 | > 10 µM | > 10 µM | > 10 µM | > 10 µM | > 10 µM | 0 | 0 | 0 | 0 | 0 | 97.4% | 102% | 99.8% | 99.2% | 95.2% | 96.8% | 99% | 94.4% | 99.1% | 94.7% | 111% | 108% | 100% | 94.5% | 104% | 108% | 102% | 94.5% | 109% | 108% | 89.2% | 96.2% | 101% | 97.9% | 97.9%
